pEC50: −log10 of the molar value.
System: HIV-IIIb
Test: Test A: Antiviral Assays in MT4 Cells
Assay type: cell-based
Details: Human immunodeficiency virus 1, IIIB, MT4, 120 h, MT-4 cells infected with HIV-IIIb (0.004 m.o.i.), 5 days incubation, CellTiter-Glo readout
Experimental: Test A: Antiviral Assays in MT4 Cells
For the antiviral assay utilizing MT-4 cells, 0.4 μL of […] test concentration of 3-fold serially diluted compound in DMSO was added to 40 μL of cell growth medium (RPMI 1640, 10% FBS, 1% penicilline/Streptomycine, 1% L-Glutamine, 1% HEPES) in each well of 384-well assay plates (10 concentrations) in quadruplicate.
1 mL aliquots of 2×10e6 MT-4 cells are pre-infected for 1 and 3 hrs respectively, @ 37° C. with 25 uL (MT4) or of either cell growth medium (mock-infected) or a fresh 1:250 dilution of an HIV-IIIb concentrated ABI stock (0.004 m.o.i. for MT4 cells). Infected and uninfected cells are diluted in cell growth medium and 35 uL of 2000 (for MT4) cells is added to each well of the assay plates.
Assay plates were then incubated in a 37° C. incubator. After 5 days of incubation, 25 μl of 2× concentrated CellTiter-Glo™ Reagent (catalog #G7573, Promega Biosciences, Inc., Madison, Wis.) was added to each well of the assay plate. Cell lysis was carried out by incubating at room temperature for 2-3 min and then chemiluminescence was read using the Envision reader (PerkinElmer).
Accordingly, the compounds disclosed herein (e.g. compound of the invention) may be useful for treating the proliferation of the HIV virus, treating AIDS or delaying the onset of AIDS or ARC symptoms.

Structure (SMILES)	pEC50
Cc1cc2nc(-c3cnc4[nH]cc(C)c4c3)sc2c(-c2ccc(Cl)cc2)c1[C@](C)(OC(C)(C)C)C(=O)O [Compound 112, (S)-methyl 2-tert-butoxy-2-(7-(4-chlorophenyl)-5-methyl-2-(3-methyl-1H-pyrrolo[2,3-b]pyridin-5-yl)benzo[d]thiazol-6-yl)acetic acid]	7.55
Cc1cc2nc(N3CCC(Oc4ccccc4)C3)sc2c(-c2ccc(Cl)cc2)c1[C@H](OC(C)(C)C)C(=O)O (stereo partly drawn) [Compound 126, (2S)-2-tert-butoxy-2-(7-(4-chlorophenyl)-5-methyl-2-(3-phenoxypyrrolidin-1-yl)benzo[d]thiazol-6-yl)acetic acid]	6.14
Cc1cc2nc(-c3ccnc(-c4cnn(Cc5ccccc5)c4)c3)sc2c(-c2ccc(Cl)cc2)c1[C@H](OC(C)(C)C)C(=O)O [Compound 150]	7.04
